Test results taken from a melting point compilation (Tetko et al.).

| Compound | melting point |
| --- | --- |
| CCCCCCCCCCCCCCCCOC(=O)c1ccc(C(=O)N(CCCCCCCCCCCCCCCC)OCCCCCCCCCCCCCCCC)nc1 | 93 to 95 °C |
| CCCCCCCCCCCCS(=O)(=O)c1c(S(=O)(=O)CCCCCCCCCCCC)c(S(=O)(=O)CCCCCCCCCCCC)c(S(=O)(=O)CCCCCCCCCCCC)c(S(=O)(=O)CCCCCCCCCCCC)c1S(=O)(=O)CCCCCCCCCCCC | 60 °C |
| C=CCOCC(=O)Nc1c(I)c(C(=O)NC(COC(C)=O)COC(C)=O)c(I)c(C(=O)NC(COC(C)=O)COC(C)=O)c1I | 214 to 216 °C |
| CCCCNC1=CCC(C)n2c1ncc(C(=O)O)c2=O (stereo not given) | 135 to 137 °C |
| CSC1=NCc2cc(Cl)ccc2-n2c(C)nnc21 | 248 to 250 °C |
| CCCCCCCCCCCCCCCCCC(=O)OCC(COC(=O)C(N)Cc1ccc(N(CCCl)CCCl)cc1)OC(=O)CCCCCCCCCCCCCCCCC (stereo not given) | 82 to 83 °C |
| c1ccc(C2CN3CCSC3=N2)cc1 (stereo not given) | 60 to 61.5 °C |
| O=C(Cc1ccccc1)Oc1n[nH]c(=O)c2nc3cc(Cl)ccc3c(O)c12 | 278 to 282 °C |
| [C-]#[N+]C(C)C(=O)N(c1ccccc1)C(C)C (stereo not given) | 47 to 50 °C |
| [C-]#[N+]Cc1nc2ccccc2o1 | 57 to 57.5 °C |
| C=CC1=C(C)c2cc3[nH]c(cc4nc(cc5[nH]c(cc1n2)c(C)c5CCC(=O)OC(CN(C)C)CN(C)C)C(CCC(=O)OC(CN(C)C)CN(C)C)=C4C)c(C)c3C=C | 181 to 190 °C |
| [C-]#[N+]c1c(C)cccc1C(C)(C)C | 60 to 62 °C |
| COC(=O)COC1C(NC(C)=O)C(OCc2ccccc2)OC(COCc2ccccc2)C1OC1OC(COCc2ccccc2)C(OCc2ccccc2)C(OCc2ccccc2)C1NC(C)=O (stereo not given) | 221 to 223 °C |
| ON=C(Cl)c1ccc(Cl)cc1 | 87.5 °C |
| CS(=O)(=O)N1CC=C(C#Cc2ccc3c(c2)NC(=O)CC(c2cccc(C#N)c2)=N3)CC1 | 235 °C |
| CCCCCCCCCCCCCC(=O)Nc1ccc(Cl)c(NC2=NN(c3c(Cl)cc(Cl)cc3Cl)C(=O)C2SCCCCOc2cccc(C)c2)c1 (stereo not given) | 123 to 124 °C |
| C=COC(=O)CCC | -80 °C |

| Compound | melting point |
| --- | --- |
| O=C(O)CN(CC(COCc1ccccc1)N(CCCOCc1ccccc1)CC(=O)O)CC(COCc1ccccc1)N(CCCOCc1ccccc1)CC(=O)O (stereo not given) | 150 °C |
| CCCCCCCCN=C(O)c1c(Sc2ccc([N+](=O)[O-])cc2)c(Sc2ccc([N+](=O)[O-])cc2)c(Sc2ccc([N+](=O)[O-])cc2)c(Sc2ccc([N+](=O)[O-])cc2)c1C(=O)O | 202 to 204 °C |
| CSC(=NS(=O)(=O)c1ccccc1)c1ccccc1 | 150 to 155 °C |
| CC(C)(C)OC(=O)N1CCN(c2ccc(C(=O)O)cc2)CC1 | 195 °C |
| CC(COC(=O)CCc1cc(C(C)(C)C)c(O)c(C(C)(C)C)c1)(COC(=O)CCc1cc(C(C)(C)C)c(O)c(C(C)(C)C)c1)COC(=O)CCc1cc(C(C)(C)C)c(O)c(C(C)(C)C)c1 | 55 to 78 °C |
| CN=S(=O)(NC(=O)Nc1nc(OC)cc(OC)n1)c1ccccc1Br (stereo not given) | 120 to 125 °C |
| CS(=O)(=O)C1CCN(Cc2ccc(COc3cccc4c3CN(C3CCC(=O)NC3=O)C4=O)cc2)CC1 (stereo not given) | 173 to 175 °C |
| CCCCc1c(CC[Si](Cl)(Cl)Cl)c(CC[Si](Cl)(Cl)Cl)c(CC[Si](Cl)(Cl)Cl)c(CC[Si](Cl)(Cl)Cl)c1CC[Si](Cl)(Cl)Cl | 228 to 235 °C |
| CCCNC(Cc1cc(I)c(Oc2cc(I)c(O)c(I)c2)c(I)c1)C(=O)O (stereo not given) | 212 to 213 °C |
| CCCCCCCCCCCCN(c1nc(NCC(O)C2CC(C)(C)NC(C)(C)C2)nc(NCC(O)C2CC(C)(C)NC(C)(C)C2)n1)c1nc(NCC(O)C2CC(C)(C)NC(C)(C)C2)nc(NCC(O)C2CC(C)(C)NC(C)(C)C2)n1 (stereo not given) | 106 to 110 °C |
| CC(=O)OC1C(=O)C2(C)C(O)CC3OCC3(OC(C)=O)C2C(OC(=O)c2ccccc2)C23OC(=O)OC2C(OC(=O)C(O)C(CC(C)C)NC(=O)OC(C)(C)C)C(C)=C1C3(C)C (stereo not given) | 159 °C |
| CCn1cc(C(=O)N[C@@H]2C(=O)N[C@@H]2C(=O)OC)c(=O)c2ccc(C)nc21 (relative stereo) | 223 to 224 °C |
| CC(=O)OCC=C(C)CCC=C(C)CCC=C(C)CCC=C(C)CCC=C(C)CCC=C(C)CCC=C(C)CCC=C(C)CCC=C(C)CCC=C(C)CCC=C(C)C | 36 to 37 °C |
| CCCCC(CC)C(=O)Cl (stereo not given) | < -75 °C |
| CCc1c(CC[Si](Cl)(Cl)Cl)c(CC[Si](Cl)(Cl)Cl)c(CC[Si](Cl)(Cl)Cl)c(CC[Si](Cl)(Cl)Cl)c1CC[Si](Cl)(Cl)Cl | 195 to 198 °C |
| COC(=O)COc1ccccc1 | 85 to 89 °C |
| CCCCN(c1nc(N(CCCC)C2CC(C)(C)N(OCC(C)(C)O)C(C)(C)C2)nc(N(CCCC)C2CC(C)(C)N(OCC(C)(C)O)C(C)(C)C2)n1)C1CC(C)(C)N(OCC(C)(C)O)C(C)(C)C1 | 172 to 176 °C |

Other lines, results leading:

| melting point | Compound |
| --- | --- |
| 97 to 99 °C | CC(C)[C@H](NC(=O)N(C)Cc1ccccn1)C(=O)N[C@@H](Cc1ccccc1)[C@H](O)[C@@H](O)[C@H](Cc1ccccc1)NC(=O)[C@@H](NC(=O)N(C)Cc1csc(N)n1)C(C)C |
| 92 to 95 °C | Nc1cc(C(F)(F)C(F)(F)OC(F)(F)C(F)(F)OC(F)(F)C(F)(F)OC(F)(F)C(F)(F)C(F)(F)C(F)(F)C(F)(F)OC(F)(F)C(F)(F)c2ccc(O)c(N)c2)ccc1O |
| 106 to 109 °C | O=C(Oc1ccc2c(OC(=O)c3ccc(OCc4ccccc4)c(Cl)c3)c3ccccc3cc2c1OC(=O)c1ccc(OCc2ccccc2)c(Cl)c1)c1ccc(OCc2ccccc2)c(Cl)c1 |
| 107 to 109 °C | CC(C)[C@H](NC(=O)N(C)Cc1nc2ccccc2[nH]1)C(=O)N[C@@H](Cc1ccccc1)[C@H](O)[C@H](O)[C@H](Cc1ccccc1)NC(=O)[C@@H](NC(=O)N(C)Cc1nc2ccccc2[nH]1)C(C)C |
| 191 to 194 °C | CCCc1[nH]c2ccccc2c1C1(c2ccc(N(CC)CC)cc2OCCOCCOc2cc(N(CC)CC)ccc2C2(c3c(CCC)[nH]c4ccccc34)OC(=O)c3ccccc32)OC(=O)c2ccccc21 (stereo not given) |
| 85 to 90 °C | COC(=O)Cc1ccc(C(NC(=O)CCC(Cc2ccccc2)(NC(=O)c2ccc(N(C)C3CCc4cc5nc(C)n(COC(=O)C(C)(C)C)c(=O)c5cc43)cc2F)C(=O)O)C(=O)OC)cc1 (stereo not given) |
| 240 to 242 °C | O=C(Oc1cccc2c(OC(=O)c3ccc(OCc4ccccc4)cc3)c3c(OC(=O)c4ccc(OCc5ccccc5)cc4)cccc3cc12)c1ccc(OCc2ccccc2)cc1 |
| 196 to 203 °C | CC(=O)OC12COC1CC(O)C1(C)C(=O)C(O)C3=C(C)C(OC(=O)C(O)C(NC(=O)OC(C)(C)C)c4ccccc4)CC(O)(C(OC(=O)c4ccccc4)C21)C3(C)C (stereo not given) |
| 105 °C | CC(C)c1ccc(S(=O)(=O)OC(c2cc(C(OS(=O)(=O)c3ccc(C(C)C)cc3)(C(F)(F)F)C(F)(F)F)cc(C(OS(=O)(=O)c3ccc(C(C)C)cc3)(C(F)(F)F)C(F)(F)F)c2)(C(F)(F)F)C(F)(F)F)cc1 |
| 85 to 87 °C | COC(=O)CNC(=O)[C@H](NC(=O)[C@@H](CSC(c1ccccc1)(c1ccccc1)c1ccccc1)NC(=O)[C@@H](CCCCNC(=O)OC(C)(C)C)NC(=O)C[C@H](O)C=CCCSC(c1ccccc1)(c1ccccc1)c1ccccc1)C(C)C |
| 68.3 °C | C=C(C)C(=O)OCCCCCCCCCCCOc1ccc(-c2nc(-c3ccccc3)nc(-c3ccc(OCCCCCCCCCCCOC(=O)C(=C)C)cc3O)n2)c(O)c1 |
| 153 to 159 °C | COc1ccc(-c2cc(C(=O)NCCCCCCc3ccccc3)cc(-c3cccc(C(F)(F)F)c3)c2OCC(=O)O)cc1 |
| 58 to 60 °C | O=C(CC(=O)c1cc(F)c(F)cc1F)OCc1ccc(OCCCCCCCCCCC2c3c(c4ccccc4c4ccccc34)-c3c2c2ccccc2c2ccccc32)cc1 |
| 112 °C | Cc1ccc2cccc(OCc3c(Cl)ccc(S(=O)(=O)N4CCC[C@H]4C(=O)NC4CCN(C(=O)CCN(C=NC(=O)OC(C)(C)C)NC(=O)OC(C)(C)C)CC4)c3Cl)c2n1 |
| 178 to 179 °C | CCc1nc(OC)c(NC(=O)N2CCN(c3cc(C)cc(C)c3)CC2)cc1C(=O)NC(C)C(=O)Nc1cc(CO)cc(Nc2c3ccccc3nc3c(OC)cccc23)c1 (stereo not given) |
| 201 to 203 °C | O=S(=O)(C(/C=C/c1ccc(I)cc1)c1ccc(Br)cc1)C(/C=C/c1ccc(I)cc1)c1ccc(Br)cc1 (stereo not given) |
| 195 to 197 °C | O=C(O)Cc1cccc(-c2cc(CCCCc3ccc(OC4OC(CO)C(O)C(O)C4O)c(-c4cccc(CC(=O)O)c4)c3)ccc2OC2OC(CO)C(O)C(O)C2O)c1 (stereo not given) |
| 86 to 91 °C | CCCCOC(=O)C(C)(C)Oc1ccc(-c2nc(-c3ccc(OC(C)(C)C(=O)OCCCC)cc3O)nc(-c3ccc(OC(C)(C)C(=O)OCCCC)cc3O)n2)c(O)c1 |
| 276 °C | Cc1cc(Cc2ccc(O)c(C(c3cc(C)c(O)cc3C)c3cc(C)c(O)cc3C)c2)c(O)c(Cc2ccc(O)c(C(c3cc(C)c(O)cc3C)c3cc(C)c(O)cc3C)c2)c1 |
| 138 to 140 °C | CC(C)[C@H](NC(=O)N(C)Cc1csc(NC(=O)OC(C)(C)C)n1)C(=O)N[C@@H](Cc1ccccc1)[C@H](O)[C@@H](O)[C@H](Cc1ccccc1)NC(=O)[C@@H](NC(=O)N(C)Cc1csc(NC(=O)OC(C)(C)C)n1)C(C)C |
| 57 to 60 °C | CCOC(=O)c1cnc2snc(C)c2c1N(C)S(=O)(=O)c1ccc(Oc2ccncc2)cc1 |
| 159 to 160 °C | COCCOc1ccc(/C=C(\C)C(=O)NS(=O)(=O)CC(F)(F)F)c(Oc2ncc(C(F)(F)F)cc2Cl)c1 |
| 87 to 88 °C | FC(F)(F)C(F)(F)C(F)(F)C(F)(F)C(F)(F)C(F)(F)C(F)(F)C(F)(F)CCC1(CCC(F)(F)C(F)(F)C(F)(F)C(F)(F)C(F)(F)C(F)(F)C(F)(F)C(F)(F)F)c2ccccc2-c2ccccc21 |
| 262 to 264 °C | CCC1(CC)c2cc(-c3nc4ccccc4s3)ccc2-c2ccc(N(c3ccc4c(c3)C(CC)(CC)c3cc(-c5nc6ccccc6s5)ccc3-4)C3CCCCC3)cc21 |
| 114 to 115 °C | CC(=O)Nc1cc(COC2OC(COC(=O)c3ccc(Cl)cc3)C(OC3OC4COC(c5ccccc5)OC4C(OC(C)=O)C3OC(C)=O)C(OC(C)=O)C2OC(C)=O)ccc1Cl (stereo not given) |
| 85 to 86 °C | CCCCCCCCCCCCCCCCCCN(CCCCCCCCCCCCCCCCCC)C(=O)c1cc(NS(=O)(=O)c2ccc(S(=O)(=O)CCC#N)cc2)c2ccccc2c1O |
